Like-named read-outs stand apart in the source and are kept apart here.
Columns and labels:
Assay in all cases: Kinase inhibitory activity profiling of RI-962@10 µM (406 kinases, Eurofins)
Type in all cases: biochemical
[1] = molecular target: panel of human kinases (kinase named in endpoint) (Homo sapiens, UniProt Q13153); settings: 10 µM; read-out: Activity (%), PAK1(h)
How it was run: (§1)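 Radiometric filter-binding kinase assays: enzyme preincubated 15 min with compound in 8 mM MOPS pH 7.0, 0.2 mM EDTA, 250 μM peptide substrate, 10 mM magnesium acetate, 10 μM [γ-33P]-ATP. Reaction started with Mg/ATP, run 40 min at room temperature, stopped with phosphoric acid; 33P incorporation read by scintillation counting. Other kinases by similar protocols.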

[2] = molecular target: panel of human kinases (kinase named in endpoint) (Homo sapiens, UniProt Q9BQI3); settings: 10 µM; read-out: Activity (%), HRI(h)
How it was run: as §1

[3] = molecular target: panel of human kinases (kinase named in endpoint) (Homo sapiens, UniProt O60674); settings: 10 µM; read-out: Activity (%), JAK2(h)
How it was run: as §1

[4] = molecular target: panel of human kinases (kinase named in endpoint) (Homo sapiens, UniProt P68400); settings: 10 µM
How it was run: as §1

[5] = molecular target: panel of human kinases (kinase named in endpoint) (Homo sapiens, UniProt P45984); settings: 10 µM; read-out: Activity (%), JNK2α2(h)
How it was run: as §1

[6] = molecular target: panel of human kinases (kinase named in endpoint) (Homo sapiens, UniProt Q02750); settings: 10 µM; read-out: Activity (%), MEK1(h)
How it was run: as §1

[7] = molecular target: panel of human kinases (kinase named in endpoint) (Homo sapiens, UniProt P10721, D816H); settings: 10 µM; read-out: Activity (%), cKit(D816H)(h)
How it was run: as §1

[8] = molecular target: panel of human kinases (kinase named in endpoint) (Homo sapiens, UniProt Q96RG2); settings: 10 µM; read-out: Activity (%), PASK(h)
How it was run: as §1

[9] = molecular target: panel of human kinases (kinase named in endpoint) (Homo sapiens, UniProt P06241); settings: 10 µM; read-out: Activity (%), Fyn(h)
How it was run: as §1

[10] = molecular target: panel of human kinases (kinase named in endpoint) (Homo sapiens, UniProt P04629); settings: 10 µM; read-out: Activity (%), TrkA(h)
How it was run: as §1

[11] = molecular target: panel of human kinases (kinase named in endpoint) (Homo sapiens, UniProt P41743); settings: 10 µM; read-out: Activity (%), PKCι(h)
How it was run: as §1

[12] = molecular target: panel of human kinases (kinase named in endpoint) (Homo sapiens, UniProt P00519, T315I); settings: 10 µM; read-out: Activity (%), Abl(T315I)(h)
How it was run: as §1

[13] = molecular target: panel of human kinases (kinase named in endpoint) (Homo sapiens, UniProt Q96BR1); settings: 10 µM; read-out: Activity (%), SGK3(h)
How it was run: as §1

[14] = molecular target: panel of human kinases (kinase named in endpoint) (Homo sapiens, UniProt P53778); settings: 10 µM; read-out: Activity (%), SAPK3(h)
How it was run: as §1

[15] = molecular target: panel of human kinases (kinase named in endpoint) (Homo sapiens, UniProt Q6DT37); settings: 10 µM; read-out: Activity (%), MRCKγ(h)
How it was run: as §1

[16] = molecular target: panel of human kinases (kinase named in endpoint) (Homo sapiens, UniProt O14965); settings: 10 µM; read-out: Activity (%), Aurora-A(h)
How it was run: as §1

[17] = molecular target: panel of human kinases (kinase named in endpoint) (Homo sapiens, UniProt Q6P2M8); settings: 10 µM; read-out: Activity (%), CaMKIß(h)
How it was run: as §1

[18] = molecular target: panel of human kinases (kinase named in endpoint) (Homo sapiens, UniProt P08581, D1228N); settings: 10 µM; read-out: Activity (%), Met(D1246N)(h)
How it was run: as §1

[19] = molecular target: panel of human kinases (kinase named in endpoint) (Homo sapiens, UniProt Q9Y4K4); settings: 10 µM; read-out: Activity (%), MAP4K5(h)
How it was run: as §1

[20] = molecular target: panel of human kinases (kinase named in endpoint) (Homo sapiens, UniProt Q9H422); settings: 10 µM; read-out: Activity (%), HIPK3(h)
How it was run: as §1

[21] = molecular target: panel of human kinases (kinase named in endpoint) (Homo sapiens, UniProt P17612); settings: 10 µM; read-out: Activity (%), PKA(h)
How it was run: as §1

[22] = molecular target: panel of human kinases (kinase named in endpoint) (Homo sapiens, UniProt P51617); settings: 10 µM; read-out: Activity (%), IRAK1(h)
How it was run: as §1

[23] = molecular target: panel of human kinases (kinase named in endpoint) (Homo sapiens, UniProt Q9Y2U5); settings: 10 µM; read-out: Activity (%), MEKK2(h)
How it was run: as §1

[24] = molecular target: panel of human kinases (kinase named in endpoint) (Homo sapiens, UniProt P33981); settings: 10 µM; read-out: Activity (%), TTK(h)
How it was run: as §1

[25] = molecular target: panel of human kinases (kinase named in endpoint) (Homo sapiens, UniProt Q9H0K1); settings: 10 µM; read-out: Activity (%), SIK2(h)
How it was run: as §1

panel of human kinases (kinase named in endpoint) (Homo sapiens, UniProt P68400), sequence (P68400 whole entry): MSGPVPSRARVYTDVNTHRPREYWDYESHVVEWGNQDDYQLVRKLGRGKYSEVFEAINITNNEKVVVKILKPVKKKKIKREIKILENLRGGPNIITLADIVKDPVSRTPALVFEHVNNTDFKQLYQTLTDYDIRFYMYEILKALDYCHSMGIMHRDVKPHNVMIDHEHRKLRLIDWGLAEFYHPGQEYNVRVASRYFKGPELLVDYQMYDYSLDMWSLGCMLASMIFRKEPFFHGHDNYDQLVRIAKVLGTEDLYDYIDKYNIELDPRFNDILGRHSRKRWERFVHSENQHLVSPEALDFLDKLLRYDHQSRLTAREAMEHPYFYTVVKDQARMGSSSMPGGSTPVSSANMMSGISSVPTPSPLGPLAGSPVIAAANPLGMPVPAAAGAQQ
panel of human kinases (kinase named in endpoint) (Homo sapiens, UniProt Q6P2M8), sequence (Q6P2M8 whole entry): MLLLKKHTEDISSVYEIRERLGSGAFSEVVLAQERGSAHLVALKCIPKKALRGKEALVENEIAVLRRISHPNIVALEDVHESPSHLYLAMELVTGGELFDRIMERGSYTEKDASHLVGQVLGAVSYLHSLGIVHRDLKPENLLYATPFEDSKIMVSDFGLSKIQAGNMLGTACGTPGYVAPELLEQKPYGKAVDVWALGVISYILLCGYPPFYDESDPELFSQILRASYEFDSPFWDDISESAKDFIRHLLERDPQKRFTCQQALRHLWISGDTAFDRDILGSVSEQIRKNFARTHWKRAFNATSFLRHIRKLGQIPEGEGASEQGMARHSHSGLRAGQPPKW
panel of human kinases (kinase named in endpoint) (Homo sapiens, UniProt P33981), sequence (P33981 whole entry): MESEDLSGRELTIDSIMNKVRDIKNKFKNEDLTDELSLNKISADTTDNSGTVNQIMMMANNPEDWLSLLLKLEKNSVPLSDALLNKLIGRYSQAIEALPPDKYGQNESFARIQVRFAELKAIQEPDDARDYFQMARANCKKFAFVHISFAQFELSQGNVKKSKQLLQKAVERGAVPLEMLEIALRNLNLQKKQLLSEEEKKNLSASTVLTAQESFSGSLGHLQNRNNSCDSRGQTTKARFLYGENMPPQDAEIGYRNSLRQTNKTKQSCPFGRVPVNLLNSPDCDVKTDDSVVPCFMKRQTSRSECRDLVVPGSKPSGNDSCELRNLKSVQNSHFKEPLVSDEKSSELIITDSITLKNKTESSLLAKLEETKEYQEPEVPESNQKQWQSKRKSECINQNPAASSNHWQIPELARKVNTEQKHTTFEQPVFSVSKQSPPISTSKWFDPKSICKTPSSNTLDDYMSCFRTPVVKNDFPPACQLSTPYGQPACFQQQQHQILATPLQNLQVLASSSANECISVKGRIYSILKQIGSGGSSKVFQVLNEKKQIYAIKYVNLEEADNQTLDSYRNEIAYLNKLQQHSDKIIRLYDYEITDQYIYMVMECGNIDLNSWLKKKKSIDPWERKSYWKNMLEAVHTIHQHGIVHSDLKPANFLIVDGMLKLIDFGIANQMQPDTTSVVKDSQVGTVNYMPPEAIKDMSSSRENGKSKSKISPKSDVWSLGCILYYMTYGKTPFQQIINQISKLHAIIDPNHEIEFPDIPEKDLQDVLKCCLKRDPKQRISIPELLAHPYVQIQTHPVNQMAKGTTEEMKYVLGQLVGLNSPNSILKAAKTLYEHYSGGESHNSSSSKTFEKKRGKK
panel of human kinases (kinase named in endpoint) (Homo sapiens, UniProt P06241), sequence (P06241 whole entry): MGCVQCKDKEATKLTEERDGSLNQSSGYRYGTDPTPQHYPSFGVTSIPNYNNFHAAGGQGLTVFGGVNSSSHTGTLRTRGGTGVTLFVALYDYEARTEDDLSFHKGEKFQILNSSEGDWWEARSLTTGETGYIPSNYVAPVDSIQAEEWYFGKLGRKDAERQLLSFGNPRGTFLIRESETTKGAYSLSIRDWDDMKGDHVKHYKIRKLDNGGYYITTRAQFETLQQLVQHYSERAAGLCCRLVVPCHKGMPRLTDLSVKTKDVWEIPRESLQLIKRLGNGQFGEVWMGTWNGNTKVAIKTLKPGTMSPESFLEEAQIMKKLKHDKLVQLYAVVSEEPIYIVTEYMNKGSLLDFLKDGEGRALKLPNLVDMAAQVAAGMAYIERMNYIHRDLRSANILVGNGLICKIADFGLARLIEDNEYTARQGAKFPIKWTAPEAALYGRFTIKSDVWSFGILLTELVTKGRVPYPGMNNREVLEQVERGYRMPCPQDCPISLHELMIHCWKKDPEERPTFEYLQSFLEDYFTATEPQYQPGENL
panel of human kinases (kinase named in endpoint) (Homo sapiens, UniProt P41743), sequence (P41743 whole entry): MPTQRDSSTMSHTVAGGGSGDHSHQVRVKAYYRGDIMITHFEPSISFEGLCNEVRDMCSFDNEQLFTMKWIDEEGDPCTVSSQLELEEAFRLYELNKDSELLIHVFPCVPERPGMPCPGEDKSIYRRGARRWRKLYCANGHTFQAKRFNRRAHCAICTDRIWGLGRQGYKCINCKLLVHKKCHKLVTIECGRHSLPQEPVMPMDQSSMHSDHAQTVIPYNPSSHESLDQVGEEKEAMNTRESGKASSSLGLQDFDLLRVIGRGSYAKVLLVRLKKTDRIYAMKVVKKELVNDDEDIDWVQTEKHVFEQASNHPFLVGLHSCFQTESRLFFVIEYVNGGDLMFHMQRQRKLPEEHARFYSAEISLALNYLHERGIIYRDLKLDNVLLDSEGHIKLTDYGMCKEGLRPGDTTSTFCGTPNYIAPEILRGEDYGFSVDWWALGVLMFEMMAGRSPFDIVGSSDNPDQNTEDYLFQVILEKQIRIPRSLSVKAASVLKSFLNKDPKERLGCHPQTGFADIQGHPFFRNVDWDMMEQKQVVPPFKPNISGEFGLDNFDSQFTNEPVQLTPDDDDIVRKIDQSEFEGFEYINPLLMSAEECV
panel of human kinases (kinase named in endpoint) (Homo sapiens, UniProt Q9H422), sequence (Q9H422 whole entry): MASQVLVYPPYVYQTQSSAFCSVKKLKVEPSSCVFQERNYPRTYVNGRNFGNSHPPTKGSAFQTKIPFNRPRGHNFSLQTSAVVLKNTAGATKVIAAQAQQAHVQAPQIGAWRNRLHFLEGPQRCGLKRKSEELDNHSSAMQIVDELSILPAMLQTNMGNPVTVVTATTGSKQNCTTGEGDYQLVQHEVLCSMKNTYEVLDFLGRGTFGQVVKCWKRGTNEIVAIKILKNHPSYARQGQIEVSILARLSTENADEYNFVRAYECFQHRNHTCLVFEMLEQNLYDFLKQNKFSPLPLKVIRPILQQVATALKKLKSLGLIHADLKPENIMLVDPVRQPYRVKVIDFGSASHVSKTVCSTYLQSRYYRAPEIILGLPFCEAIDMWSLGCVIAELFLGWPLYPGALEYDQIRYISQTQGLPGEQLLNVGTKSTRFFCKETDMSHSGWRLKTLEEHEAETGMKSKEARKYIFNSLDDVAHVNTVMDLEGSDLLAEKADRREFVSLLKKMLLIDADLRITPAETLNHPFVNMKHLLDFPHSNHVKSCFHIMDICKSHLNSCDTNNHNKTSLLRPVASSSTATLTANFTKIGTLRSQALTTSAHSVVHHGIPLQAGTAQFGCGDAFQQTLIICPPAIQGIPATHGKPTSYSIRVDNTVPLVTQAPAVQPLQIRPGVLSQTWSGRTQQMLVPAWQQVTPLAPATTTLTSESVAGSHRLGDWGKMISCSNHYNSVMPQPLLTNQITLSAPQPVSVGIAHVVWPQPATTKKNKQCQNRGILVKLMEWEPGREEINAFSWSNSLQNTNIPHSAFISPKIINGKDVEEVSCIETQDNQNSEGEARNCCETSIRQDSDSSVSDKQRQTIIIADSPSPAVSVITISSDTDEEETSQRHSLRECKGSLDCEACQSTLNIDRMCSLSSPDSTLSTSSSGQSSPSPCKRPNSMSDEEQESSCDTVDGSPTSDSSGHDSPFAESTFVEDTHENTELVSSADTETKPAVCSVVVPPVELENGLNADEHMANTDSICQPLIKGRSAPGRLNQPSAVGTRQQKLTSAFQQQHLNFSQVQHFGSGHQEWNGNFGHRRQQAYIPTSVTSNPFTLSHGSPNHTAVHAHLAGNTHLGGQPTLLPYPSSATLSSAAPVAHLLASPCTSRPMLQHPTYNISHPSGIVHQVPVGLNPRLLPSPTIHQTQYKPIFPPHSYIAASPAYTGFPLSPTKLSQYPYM
panel of human kinases (kinase named in endpoint) (Homo sapiens, UniProt Q9Y4K4), sequence (Q9Y4K4 whole entry): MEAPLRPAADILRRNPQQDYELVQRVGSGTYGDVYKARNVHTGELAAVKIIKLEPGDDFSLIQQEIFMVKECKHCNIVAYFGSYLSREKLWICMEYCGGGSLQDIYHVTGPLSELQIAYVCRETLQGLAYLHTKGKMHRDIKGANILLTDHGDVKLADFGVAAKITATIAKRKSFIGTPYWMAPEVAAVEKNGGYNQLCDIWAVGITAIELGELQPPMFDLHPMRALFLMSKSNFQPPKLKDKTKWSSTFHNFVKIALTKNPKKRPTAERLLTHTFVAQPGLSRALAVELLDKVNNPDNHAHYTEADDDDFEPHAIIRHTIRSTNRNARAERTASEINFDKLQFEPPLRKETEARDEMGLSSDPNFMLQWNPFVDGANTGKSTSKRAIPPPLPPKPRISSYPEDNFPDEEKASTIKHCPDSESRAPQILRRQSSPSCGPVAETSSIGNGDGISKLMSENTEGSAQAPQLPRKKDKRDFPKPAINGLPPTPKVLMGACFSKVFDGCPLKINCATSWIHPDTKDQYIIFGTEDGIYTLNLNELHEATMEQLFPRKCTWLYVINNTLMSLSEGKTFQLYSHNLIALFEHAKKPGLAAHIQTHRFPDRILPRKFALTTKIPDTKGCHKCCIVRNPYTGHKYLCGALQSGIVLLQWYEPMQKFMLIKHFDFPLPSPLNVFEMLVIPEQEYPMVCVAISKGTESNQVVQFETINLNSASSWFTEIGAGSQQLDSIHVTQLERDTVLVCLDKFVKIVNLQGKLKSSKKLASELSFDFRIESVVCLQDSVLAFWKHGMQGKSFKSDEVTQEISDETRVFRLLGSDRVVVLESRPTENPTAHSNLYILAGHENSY

CC(C)C(=O)Nc1nc2cc(-c3ccc4c(c3)c(C(=O)NC(C)c3ccccc3)cn4C)ccn2n1 (centres unmarked) [RI-962]
activity at 10 µM [1]: 105% | activity at 10 µM [2]: 99% | activity at 10 µM [3]: 107% | activity at 10 µM ([4]; read-out: Activity (%), CK2(h)): 91% | activity at 10 µM ([4]; read-out: Activity (%), CK2α1(h)): 94% | activity at 10 µM [5]: 71% | activity at 10 µM [6]: 105% | activity at 10 µM [7]: 142% | activity at 10 µM [8]: 71% | activity at 10 µM [9]: 107% | activity at 10 µM [10]: 64% | activity at 10 µM [11]: 97% | activity at 10 µM [12]: 132% | activity at 10 µM [13]: 132% | activity at 10 µM [14]: 100% | activity at 10 µM [15]: 83% | activity at 10 µM [16]: 95% | activity at 10 µM [17]: 100% | activity at 10 µM [18]: 125% | activity at 10 µM [19]: 100% | activity at 10 µM [20]: 89% | activity at 10 µM [21]: 97% | activity at 10 µM [22]: 103% | activity at 10 µM [23]: 98% | activity at 10 µM [24]: 92% | activity at 10 µM [25]: 101%

Reference: paper PMC9653409, “Generative deep learning enables the discovery of a potent and selective RIPK1 inhibitor” (Nature Communications, 2022)
